“Also recorded” adds a separate entry of the source.
Legend:
Prolyl oligopeptidase = biological target: T1, Prolyl oligopeptidase (Homo sapiens, UniProt P48147); experiment: Inhibition of prolyl oligopeptidase (PO), Z-Gly-Pro-AMC substrate; format: biochemical; conditions: PO from human platelets, 20 min at 37° C.
T1 construct: Prolyl oligopeptidase was purified from human platelets; from tissue; host or cells: human platelets
T1 sequence (P48147 1-710): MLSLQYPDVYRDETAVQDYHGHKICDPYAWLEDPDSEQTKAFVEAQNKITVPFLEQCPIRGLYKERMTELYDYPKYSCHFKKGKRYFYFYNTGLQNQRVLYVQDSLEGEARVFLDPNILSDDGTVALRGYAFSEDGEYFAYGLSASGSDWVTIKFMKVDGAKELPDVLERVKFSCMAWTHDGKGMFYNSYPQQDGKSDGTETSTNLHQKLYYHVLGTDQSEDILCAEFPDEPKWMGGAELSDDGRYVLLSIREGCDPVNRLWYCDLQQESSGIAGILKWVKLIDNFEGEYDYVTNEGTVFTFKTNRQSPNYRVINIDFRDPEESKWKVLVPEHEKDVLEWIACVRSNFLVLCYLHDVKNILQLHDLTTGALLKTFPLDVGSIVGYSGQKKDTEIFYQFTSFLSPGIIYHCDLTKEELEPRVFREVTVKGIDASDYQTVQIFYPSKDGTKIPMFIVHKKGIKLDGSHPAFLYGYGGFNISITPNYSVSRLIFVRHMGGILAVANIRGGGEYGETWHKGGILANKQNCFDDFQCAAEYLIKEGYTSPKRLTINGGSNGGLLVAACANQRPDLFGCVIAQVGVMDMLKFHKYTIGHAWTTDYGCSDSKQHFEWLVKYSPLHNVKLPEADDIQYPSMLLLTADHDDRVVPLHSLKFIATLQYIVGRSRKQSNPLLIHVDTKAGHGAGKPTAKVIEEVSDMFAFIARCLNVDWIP
Procedure: Prolyl oligopeptidase was purified from human platelets and the enzyme activity was measured using Z—Gly—Pro—AMC (4.4 mM) as the substrate in a K-phosphate buffer 100 mM, pH 7.5 containing 1 EM EDTA, 1 mM dithiothreitol and 1 mM NaN3. The incubation was carried out during 20 min at 37° C. The reaction was stopped by the addition of 5 volumes 1.5 M acetic acid. Fluorescence was measured at 370 and 440 nm as excitation and emission wavelengths respectively. The inhibitors were added at concentrations varying between 1 μM and 1 mM.

[1] = test system: human peripheral blood mononuclear cells (PBMC); experiment: In vitro cytotoxicity in PBMC, trypan blue exclusion; format: cell-based; conditions: freshly isolated mononuclear cells or phytohemagglutinin stimulated blasts, concentrations up to 100 μM
Procedure: Peripheral blood mononuclear cells were isolated from buffy coats (obtained from the blood transfusion center of Antwerp). After dilution (¼) in phosphate buffer saline (PBS), cells were layered onto Ficoll-Hypaque density gradient (Pharmacia, Uppsala, Sweden) and centrifuged at room temperature at 550×g during 20 min. The interfaces were collected and washed 3 times in RPMI-1640. Finally the cells were resuspended at 1×10^6 cells/mL in RPMI-1640 containing 10% heat-inactivated foetal calf serum, and antibiotics (penicillin/streptomycin) (Gibco). These freshly isolated cells were used immediately for inhibitor studies or first stimulated with phytohaemagglutinin (Murex diagnostics) at 1 μg/mL during 3 days at 37° C. in a 5% CO2 humidified incubator. Inhibitor (stock solution at −80° C. in phosphate buffer, diluted ex tempore in RPMI-1640) or vehicle alone was added to the cells (5×10^6/test) at different concentrations. After overnight incubation at 37° C., an aliquot was taken for cytotoxicity evaluation by 0.4% trypan blue exclusion. The remaining cells were washed 3 times in PBS and the final cell pellet was solubilised in 200 μL PBS containing 1% v/v Triton X-100 and 100 KIU/mL aprotinin (Bayer) and centrifuged during 10 min at 20000×g. Supernatants were used immediately for enzyme assay and protein determination by the Bradford micro-assay. Specific activities (U/g protein) are compared and the % inhibition is given toward control samples without inhibitor.

[2] = Systemic and local toxicity in rats; format: in vivo; conditions: for acute systemic or local toxicity: daily subcutaneous injection of 50 mg/kg (initial dose 100 mg/kg)
Procedure: They received standard diet and water ad lib. […] Blood was sampled from the central ear artery. Rats and mice were injected subcutaneously or intraperitoneally.

[3] = Side effects in rabbits after intravenous injection; format: in vivo; conditions: single intravenous injection of 0.2 mg/kg
Procedure: […]. They received standard diet and water ad lib. […] Blood was sampled from the central ear artery. Rats and mice were injected subcutaneously or intraperitoneally.

in vitro = conditions: human, plasma
[4] = Graft acceptance upon alloantigen challenge; format: in vivo, rats; conditions: monotherapy
Dipeptidyl peptidase II = conditions: DPP II semi-purified from rabbit kidney, pH 5.5, 20 minutes at 37° C.
Procedure: After incubation during 20 minutes at 37° C., the reaction was stopped by the addition of 10 fold excess sodium-acetate pH 3.6.

C[C@H](NC(=O)OCc1ccccc1)C(=O)Nc1ccc(OP(=O)(Oc2ccc(NC(=O)[C@H](C)NC(=O)OCc3ccccc3)cc2)C2CCCN2C(=O)[C@@H]2CCCN2C(=O)OCc2ccccc2)cc1 (mixture of isomers) [10j, Di[4-(N-benzyloxycarbonyl-(S)-alanylamino)phenyl]-1-(benzyloxycarbonyl-(S)-prolyl)pyrrolidine-2(R,S)-phosphonate] showed an IC50 (Prolyl oligopeptidase) greater than 500 µM and a melting point of 200 to 203 °C.
In the case of O=C1CC[C@@H](C(=O)Nc2ccc(OP(=O)(Oc3ccc(NC(=O)[C@@H]4CCC(=O)N4)cc3)C3CCCN3C(=O)[C@@H]3CCCN3C(=O)OCc3ccccc3)cc2)N1 (mixture of isomers) [10k, Di[4-((S)-pyroglutamylamino)phenyl]-1-(benzyloxycarbonyl-(S)-prolyl)pyrrolidine-2(R,S)-phosphonate], the IC50 (Prolyl oligopeptidase) is reported as 9 µM and the melting point is reported as 170 °C (dec.).
With CC(=O)Nc1ccc(OP(=O)(Oc2ccc(NC(C)=O)cc2)C2CCCN2C(=O)[C@@H]2CCCN2)cc1.Cl (mixture of isomers) [11e, Di(4-acetamidophenyl) 1-((S)-prolyl)pyrrolidine-2(R,S)-phosphonate hydrochloride] the cytotoxicity ([1]; hydrochloride) was “no cytotoxicity; also recorded: did not show cytotoxicity” and the “acute systemic or local toxicity” value ([2]; rats, hydrochloride) was “without any sign of acute systemic or local toxicity; also recorded: no acute systemic or local toxicity”.
For CCOC(=O)CNC(=O)c1ccc(OP(=O)(Oc2ccc(C(=O)NCC(=O)OCC)cc2)C2CCCN2C(=O)[C@@H]2CCCN2)cc1 (mixture of isomers) [11n, Di{4-[(ethoxycarbonyl)methylaminocarbonyl]phenyl}1-((S)-prolyl)pyrrolidine-2(R,S)-phosphonate], the cytotoxicity [1] was “did not show cytotoxicity; also recorded: no cytotoxicity”, the side effects [3] was “without side effects” and the “acute systemic or local toxicity” value ([2]; rats) was “without any sign of acute systemic or local toxicity; also recorded: no acute systemic or local toxicity”. For the same compound, the half-life at 1 mM (in vitro) was 0.583 ± 0.0333 h.
In the case of O=C([C@@H]1CCCN1)N1CCCC1P(=O)(Oc1ccccc1)Oc1ccccc1 (mixture of isomers) [compound 5, diphenyl 1-(S)-prolyl-pyrrolidine-2-(R,S)-phosphonate], the “systemic toxicity and local ulcerations” value ([2]; monotherapy) is reported as “occasionally also caused systemic toxicity and more often local ulcerations”, the systemic toxicity ([2]; rats, intravenously) is reported as “adequate inhibition could not be reached without severe systemic toxicity” and the graft acceptance [4] is reported as “significantly prolonged graft acceptance”. It also gave a half-life at 1 mM (in vitro) of 4.17 ± 0.167 h.
For Cl.O=C([C@@H]1CCCN1)N1CCC[C@H]1P(=O)(Oc1ccccc1)Oc1ccccc1 [11a (R), Diphenyl 1-((S)-prolyl)pyrrolidine-2(R)-phosphonate hydrochloride], the cytotoxicity [1] was “no satisfactory inhibition of DPP IV activity could be reached without cytotoxic effects” and the half-life at 1 mM (in vitro) was 5 ± 0.5 h.
Compound CC(NC(=O)[C@@H](N)Cc1ccccc1)P(=O)(Oc1ccccc1)Oc1ccccc1 (stereo partly drawn) [Phe-AlaP(OPh)2, Diphenyl 1(R,S)-L-phenylalanyl aminoethane phosphonate] has an IC50 (Dipeptidyl peptidase II) of 800 µM.
CC(NC(=O)[C@@H]1CCCN1)P(=O)(Oc1ccccc1)Oc1ccccc1 (stereo partly drawn) [Pro-AlaP(OPh)2, diphenyl 1(R,S)-L-prolyl aminoethane phosphonate] gave an IC50 (Dipeptidyl peptidase II) of 1500 µM.

Source: US20020061839A1, “Serine peptidase modulators” (priority 1998, published 2002)
